Source: PubChem BioAssay (NCI)
Values joined by “and” are separate entries in the source; they are usually repeats but may differ in a detail not shown here. Equal entries are not always repeated.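 A five-concentration, 48-hour dose response in 96-well plates underlies each endpoint, interpolated linearly between surrounding concentrations. GI50 is the concentration that inhibits growth by half. The concentration for full growth arrest is given as TGI.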

What was measured:
Experiment in all cases: DTP human tumour cell line panel, 48 h
[1] = tested on: MALME-3M melanoma
[2] = tested on: KM12 colon
[3] = tested on: SW-620 colon
[4] = tested on: SK-MEL-2 melanoma
[5] = tested on: EKVX NSCLC
[6] = tested on: 786-0 renal
[7] = tested on: OVCAR-4 ovarian
[8] = tested on: LOX IMVI melanoma
[9] = tested on: HCT-15 colon
[10] = tested on: MCF7 breast

Nc1ccc(N)c2c1C(=O)c1cccc([N+](=O)[O-])c1C2=O
GI50 [1]: 5.69 µM | TGI [1]: > 100 µM | GI50 [2]: 4.15 µM | TGI [2]: > 100 µM | GI50 [3]: 2.41 µM | TGI [3]: > 100 µM | GI50 [4]: 7.74 µM | TGI [4]: > 100 µM | GI50 [5]: 7.72 µM | TGI [5]: > 100 µM | GI50 [6]: 2.72 µM | TGI [6]: 32.1 µM | GI50 [7]: 11.9 µM | TGI [7]: > 100 µM | GI50 [8]: 1.84 µM | TGI [8]: > 100 µM | GI50 [9]: 2.16 µM | TGI [9]: > 100 µM | GI50 [10]: 0.32 µM | TGI [10]: 18 µM

O=C1C(=O)c2c(ccc3ccccc23)-c2ccccc21
GI50 [1]: 1.63 µM | TGI [1]: 3.44 µM | GI50 [2]: 1.6 µM | TGI [2]: 2.99 µM | GI50 [3]: 1.96 µM | TGI [3]: 4.23 µM | GI50 [4]: 1.73 µM | TGI [4]: 3.78 µM | GI50 [5]: 1.98 µM | TGI [5]: 5.39 µM | GI50 [6]: 3.13 µM | TGI [6]: > 100 µM | GI50 [7]: 1.21 µM | TGI [7]: 2.5 µM | GI50 [8]: 1.38 µM | TGI [8]: 3.93 µM | GI50 [9]: 1.02 µM | TGI [9]: 6.43 µM | GI50 [10]: 1.53 µM | TGI [10]: 3.48 µM

CC(C)(CCc1nc2ccccc2[nH]1)C(=O)O
TGI [1]: > 100 µM | TGI [2]: > 100 µM | TGI [3]: > 100 µM | TGI [4]: > 100 µM | TGI [5]: > 100 µM | TGI [6]: > 100 µM | TGI [7]: > 100 µM | TGI [8]: > 100 µM | TGI [9]: > 100 µM | TGI [10]: > 100 µM

Cc1c(N)nc(C2CC(=O)N2CC(N)C(N)=O)nc1C(=O)NC(C(=O)NC(C)C(O)C(C)C(=O)NC(C(=O)NCCc1nc(-c2nc(C(=O)NCCNCC(C)O)cs2)cs1)C(C)O)C(OC1OC(CO)C(O)C(O)C1OC1OC(CO)C(O)C(OC(N)=O)C1O)c1cnc[nH]1 (centres undefined)
GI50 [1]: 1.16 µM | TGI [1]: 22.5 µM and 11.9 µM | GI50 [2]: > 50 µM | TGI [2]: > 100 µM | GI50 [3]: > 50 µM | TGI [3]: > 50 µM | GI50 [4]: 31.7 µM | TGI [4]: 50 µM and > 79.2 µM | GI50 [5]: > 50 µM | TGI [5]: > 88.9 µM | GI50 [6]: 2.3 µM | TGI [6]: 50 µM and 36.8 µM | GI50 [7]: 10.7 µM | TGI [7]: 50 µM and > 100 µM | GI50 [8]: 0.712 µM | TGI [8]: 9.28 µM and 8.16 µM | GI50 [9]: 42.7 µM | TGI [9]: 50 µM and > 75.9 µM | TGI [10]: 50 µM

COc1cccc2c(Nc3ccc(C(=O)NCCN4CCNCC4)cc3)cc(-c3ccccc3)nc12
GI50 [1]: 21.6 µM | TGI [1]: 47.6 µM | GI50 [2]: 30.8 µM | TGI [2]: > 100 µM | GI50 [3]: 29 µM | TGI [3]: > 100 µM | GI50 [4]: 19.9 µM | TGI [4]: 51.7 µM | GI50 [5]: > 100 µM | TGI [5]: > 100 µM | GI50 [6]: 51.1 µM | TGI [6]: > 100 µM | GI50 [7]: 17.4 µM | TGI [7]: 74.2 µM | GI50 [8]: 20.6 µM | TGI [8]: 45.9 µM | GI50 [9]: 57.8 µM | TGI [9]: > 100 µM | GI50 [10]: 23.7 µM | TGI [10]: > 100 µM

O=C(/C=C/N1CCN(c2cccc(Cl)c2)CC1)c1ccc(Cl)cc1
GI50 [1]: 4.89 µM | TGI [1]: 26.4 µM | GI50 [2]: 27.1 µM | TGI [2]: 69.8 µM | GI50 [3]: 30 µM | TGI [3]: 99.3 µM | GI50 [4]: 35.3 µM | TGI [4]: > 100 µM | GI50 [5]: 25.9 µM | TGI [5]: 85.3 µM | GI50 [6]: 33.9 µM | TGI [6]: > 100 µM | GI50 [7]: > 100 µM | TGI [7]: > 100 µM | GI50 [8]: 32.3 µM | TGI [8]: 96.9 µM | GI50 [9]: 31 µM | TGI [9]: > 100 µM | GI50 [10]: 29.7 µM | TGI [10]: > 100 µM

O=C(Nc1cccc(C(F)(F)F)c1)Nc1cc(S(=O)(=O)NC2CC2)ccc1-c1ccsc1
GI50 [1]: 3.39 µM | TGI [1]: 11.1 µM | GI50 [2]: 4.46 µM | TGI [2]: 16.1 µM | GI50 [3]: 4.45 µM | TGI [3]: 18.5 µM | GI50 [4]: 3.15 µM | TGI [4]: 13.7 µM | GI50 [5]: 2.45 µM | TGI [5]: 12.2 µM | GI50 [6]: 6.1 µM | TGI [6]: 20.9 µM | GI50 [7]: 3.78 µM | TGI [7]: 15.4 µM | GI50 [8]: 4.5 µM | TGI [8]: 16.9 µM | GI50 [9]: 3.27 µM | TGI [9]: 12.8 µM | GI50 [10]: 3.26 µM | TGI [10]: 15 µM

COc1ccc(Cl)cc1Nc1nc(C(F)(F)F)ccc1C(=O)N/N=C/c1ccc(Cl)cc1
GI50 [1]: 1.36 µM | TGI [1]: 9.2 µM | GI50 [2]: 5.16 µM | TGI [2]: > 100 µM | GI50 [3]: 8.2 µM | TGI [3]: > 100 µM | GI50 [4]: 0.954 µM | TGI [4]: > 100 µM | GI50 [5]: 4.45 µM | TGI [5]: > 100 µM | GI50 [6]: 1.22 µM | TGI [6]: 7.09 µM | GI50 [7]: 0.74 µM | TGI [7]: > 100 µM | GI50 [8]: 8.08 µM | TGI [8]: > 100 µM | GI50 [9]: 2.41 µM | TGI [9]: > 100 µM | GI50 [10]: 1.05 µM | TGI [10]: > 100 µM

Cn1c(=O)c(-c2c(Cl)cccc2Cl)cc2cnc(Nc3ccc(N4CCOCC4)cc3)nc21
GI50 [1]: 0.0196 µM | TGI [1]: 0.491 µM | GI50 [2]: 1.38 µM | TGI [2]: 5.09 µM | GI50 [3]: 0.202 µM | TGI [3]: > 100 µM | GI50 [4]: 2.48 µM | TGI [4]: > 100 µM | GI50 [5]: 0.798 µM | TGI [5]: > 30.9 µM | GI50 [6]: < 0.01 µM | TGI [6]: 0.519 µM | GI50 [7]: 0.404 µM | TGI [7]: > 100 µM | GI50 [8]: 0.178 µM | TGI [8]: 1.31 µM | GI50 [9]: 0.0944 µM | TGI [9]: > 100 µM | GI50 [10]: 1.49 µM | TGI [10]: > 100 µM
